Usually IC50 stands for the concentration that inhibits the measured activity by half.

The experiment relates to SARS-CoV-2. As to the kind of experiment: Antiviral activity against SARS CoV-2 infected in african green monkey Vero E6 cells assessed as inhibition of viral growth preincubated with cells for 1 hr followed by viral addition for 1 hr with subsequent compound washout and measured after 24 hrs of compound replacement by qRT-PCR analysis. In kind it is functional, organism-based. The note with it: Severe acute respiratory syndrome coronavirus 2, Vero C1008. In general terms: Quantitative PCR measures a nucleic acid by following its amplification.
On to `CCCCCNC(=O)c1ccc2cc1Oc1ccc(cc1)C[C@H]1c3c(cc(OC)c(OC)c3Oc3cc4c(cc3OC)CCN(C)[C@@H]4C2)CCN1C`, for which the IC50 turned out to be 2520 nM.

Take `COc1cc2c3cc1Oc1c(OC)c(OC)cc4c1[C@H](Cc1ccc(cc1)Oc1cc(ccc1C(=O)NCCOCCO)C[C@H]3N(C)CC2)N(C)CC4`: the IC50 was found to be 2740 nM.

Consider `COc1cc2c3cc1Oc1c(OC)c(OC)cc4c1[C@H](Cc1ccc(cc1)Oc1cc(ccc1C(=O)O)C[C@H]3N(C)CC2)N(C)CC4`, for which the half-inhibitory concentration (IC50) is above 5000 nM.

With `COc1cc2c3cc1Oc1c(OC)c(OC)cc4c1[C@H](Cc1ccc(cc1)Oc1cc(ccc1C(C)=O)C[C@H]3N(C)CC2)N(C)CC4`, the half-maximal inhibitory concentration (IC50) was 1480 nM.

For `CNc1ccc2cc1Oc1ccc(cc1)C[C@H]1c3c(cc(OC)c(OC)c3Oc3cc4c(cc3OC)CCN(C)[C@@H]4C2)CCN1C`, the half-inhibitory concentration (IC50) is above 5000 nM.

Take `COc1cc2c3cc1Oc1c(OC)c(OC)cc4c1[C@H](Cc1ccc(cc1)Oc1cc(ccc1C(=O)Nc1ccc(C(F)(F)F)cc1)C[C@H]3N(C)CC2)N(C)CC4`: the IC50 was found to be 2780 nM.

In the case of `COc1cc2c3cc1Oc1c(OC)c(OC)cc4c1[C@H](Cc1ccc(cc1)Oc1cc(ccc1C(=O)NC(C)C)C[C@H]3N(C)CC2)N(C)CC4`, the half-inhibitory concentration (IC50) was 1020 nM.

On to `COc1cc2c3cc1Oc1c(OC)c(OC)cc4c1[C@H](Cc1ccc(cc1)Oc1cc(ccc1O)C[C@H]3N(C)CC2)N(C)CC4` [AROMOLINE], for which the concentration for half-maximal inhibition (IC50) was 14500 nM.

`COc1cc2c3cc1Oc1c(OC)c(OC)cc4c1[C@H](Cc1ccc(cc1)Oc1cc(cc(N)c1O)C[C@H]3N(C)CC2)N(C)CC4`: the IC50 is above 5000 nM.

Turning to `COc1ccc(NC(=O)c2ccc3cc2Oc2ccc(cc2)C[C@H]2c4c(cc(OC)c(OC)c4Oc4cc5c(cc4OC)CCN(C)[C@@H]5C3)CCN2C)cc1`, the half-maximal inhibitory concentration (IC50) came out at 620 nM.

Take `COc1cc2c3cc1Oc1c(OC)c(OC)cc4c1[C@H](Cc1ccc(cc1)Oc1cc(ccc1C1CC1)C[C@H]3N(C)CC2)N(C)CC4`: the IC50 is 2570 nM.

In the case of `COc1cc2c3cc1Oc1c(OC)c(OC)cc4c1[C@H](Cc1ccc(cc1)Oc1cc(ccc1C(=O)NC15CC6CC(CC(C6)C1)C5)C[C@H]3N(C)CC2)N(C)CC4`, the 50% inhibitory concentration (IC50) was determined as 1060 nM.

For `COc1cc2c3cc1Oc1c(OC)c(OC)cc4c1[C@H](Cc1ccc(cc1)Oc1cc(ccc1C(=O)NC1CCCC1)C[C@H]3N(C)CC2)N(C)CC4`, the IC50 was found to be 1490 nM.

Turning to `COc1cc2c3cc1Oc1c(OC)c(OC)cc4c1[C@H](Cc1ccc(cc1)Oc1cc(ccc1C(=O)Nc1ccccc1)C[C@H]3N(C)CC2)N(C)CC4`, the half-inhibitory concentration (IC50) stood at 2820 nM.

With `COc1cc2c3cc1Oc1c(OC)c(OC)cc4c1[C@H](Cc1ccc(cc1)Oc1cc(ccc1C)C[C@H]3N(C)CC2)N(C)CC4`, the IC50 came out at 2450 nM.

As to `COc1cc2c3cc1Oc1c(OC)c(OC)cc4c1[C@H](Cc1ccc(cc1)Oc1cc(ccc1C(=O)NC1CC1)C[C@H]3N(C)CC2)N(C)CC4`, the half-inhibitory concentration (IC50) is 890 nM.

In the case of `COc1cc2c3cc1Oc1c(OC)c(OC)cc4c1[C@H](Cc1ccc(cc1)Oc1cc(cc([N+](=O)[O-])c1)C[C@H]3N(C)CC2)N(C)CC4`, the IC50 was found to be 720 nM.

On to `C=C(C)c1ccc2cc1Oc1ccc(cc1)C[C@H]1c3c(cc(OC)c(OC)c3Oc3cc4c(cc3OC)CCN(C)[C@@H]4C2)CCN1C`, for which the IC50 turned out to be 1090 nM.

With `COc1cc2c3cc1Oc1c(OC)c(OC)cc4c1[C@H](Cc1ccc(cc1)Oc1cc(ccc1C(=O)Nc1cccnc1)C[C@H]3N(C)CC2)N(C)CC4`, the IC50 was 940 nM.

For `C=CC(=O)Nc1ccc2cc1Oc1ccc(cc1)C[C@H]1c3c(cc(OC)c(OC)c3Oc3cc4c(cc3OC)CCN(C)[C@@H]4C2)CCN1C`, the IC50 was 1850 nM.

For `COc1cc2c3cc1Oc1c(OC)c(OC)cc4c1[C@H](Cc1ccc(cc1)Oc1cc(cc([N+](=O)[O-])c1O)C[C@H]3N(C)CC2)N(C)CC4`, the 50% inhibitory concentration (IC50) is above 5000 nM.

Turning to `COc1cc2c3cc1Oc1c(OC)c(OC)cc4c1[C@H](Cc1ccc(cc1)Oc1cc(ccc1C(N)=O)C[C@H]3N(C)CC2)N(C)CC4`, the concentration for half-maximal inhibition (IC50) is 550 nM.

For `COc1cc2c3cc1Oc1c(OC)c(OC)cc4c1[C@H](Cc1ccc(cc1)OC1C=C(Cc5[nH]c(=O)oc51)C[C@H]3N(C)CC2)N(C)CC4` (stereo not given in full), the concentration for half-maximal inhibition (IC50) worked out at 670 nM.

For the molecule `COc1cc2c3cc1Oc1c(OC)c(OC)cc4c1[C@H](Cc1ccc(cc1)Oc1cc(ccc1N)C[C@H]3N(C)CC2)N(C)CC4`, the IC50 is above 5000 nM.

Take `COC(=O)c1ccc2cc1Oc1ccc(cc1)C[C@H]1c3c(cc(OC)c(OC)c3Oc3cc4c(cc3OC)CCN(C)[C@@H]4C2)CCN1C`: the 50% inhibitory concentration (IC50) came to 840 nM.

As for `COc1cc2c3cc1Oc1c(OC)c(OC)cc4c1[C@H](Cc1ccc(cc1)Oc1cccc(c1)C[C@H]3N(C)CC2)N(C)CC4`, the half-maximal inhibitory concentration (IC50) was found to be 930 nM.

Consider `COc1cc2c3cc1Oc1c(OC)c(OC)cc4c1[C@H](Cc1ccc(cc1)Oc1cc(ccc1NCc1ccccc1)C[C@H]3N(C)CC2)N(C)CC4`, for which the IC50 is above 5000 nM.

For `COc1cc2c3cc1Oc1c(OC)c(OC)cc4c1[C@H](Cc1ccc(cc1)Oc1cc(ccc1C(=O)NC1CCC1)C[C@H]3N(C)CC2)N(C)CC4`, the concentration for half-maximal inhibition (IC50) was 530 nM.

On to `COc1cc2c3cc1Oc1c(OC)c(OC)cc4c1[C@H](Cc1ccc(cc1)Oc1cc(ccc1C(=O)N1CCCCC1)C[C@H]3N(C)CC2)N(C)CC4`, for which the IC50 was 1600 nM.

`CNC(=O)c1ccc2cc1Oc1ccc(cc1)C[C@H]1c3c(cc(OC)c(OC)c3Oc3cc4c(cc3OC)CCN(C)[C@@H]4C2)CCN1C`: the IC50 was determined as 2510 nM.

These data come from ChEMBL document CHEMBL6074634, “Design, synthesis, and evaluation of novel oxyacanthine derivatives for anti-SARS-CoV-2 activity” (Bioorg Med Chem Lett, 2024).
